Measured values as given in patent US7868026B2, “Therapeutic compounds” (Pfizer Inc., priority 2005, dated 2011).
Where two headings read alike, the source gives them in different places.

Legend:
Type in all cases: biochemical
CYP3A4 [1] = target: T1, CYP3A4 (Homo sapiens, UniProt P08684); assay: Determination of IC50 against CYP3A4 by measurement of inhibition of midazolam metabolism (human liver microsomes, 1-hydroxymidazolam by LC-MS/MS); parameters: 0.1 mg/mL human liver microsomes; conditions: 2 μM midazolam, 0.1 mg/mL human liver microsomes
Summary of the method: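 Human liver microsomes (0.1 mg/mL) incubated 8 min with 2 μM midazolam and 1 mM NADPH in 100 mM potassium phosphate, pH 7.4. 1-Hydroxymidazolam quantified by LC-MS/MS (MRM) as peak area ratio to internal standard against a metabolite standard curve.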

CYP3A4 [2] = target: T1, CYP3A4; assay: Determination of IC50 against CYP3A4 by measurement of inhibition of testosterone metabolism (human liver microsomes, 6-β-OH-testosterone by LC-MS/MS); parameters: 0.1 mg/mL human liver microsomes; conditions: read-out: IC50 (Testo.)
Summary of the method: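 6-β-OH-testosterone formation was read by LC-MS/MS (MRM, internal standard, standard curve) after eight minutes. Reaction contained testosterone 25 μM, NADPH 1 mM and microsomal protein 0.1 mg/mL in pH 7.4 potassium phosphate (100 mM).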

CYP3A4 [3] = target: T1, CYP3A4; assay: Determination of compound Kiapp against recombinant CYP3A4 enzyme (BFC fluorescent substrate)
Summary of the method: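 Kiapp derived from initial velocities over the first 5 min of BFC (5 uM) oxidation, using Morrison's tight-binding equation for non-partial and Szedlacsek's for partial inhibitors. Inhibitor first pre-incubated ≥30 min with CYP3A4 (5.5 or 8 nM, ±b5) in pH 7.0 phosphate/TCEP/2% DMF at room temperature; 200 uM NADPH initiated.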

[4] = Baculo. enzyme preparation, read-out: Kiapp (BFC, Baculo.)
[5] = Super. enzyme preparation, read-out: Kiapp (BFC, Super.)

T1 sequence (P08684 whole entry): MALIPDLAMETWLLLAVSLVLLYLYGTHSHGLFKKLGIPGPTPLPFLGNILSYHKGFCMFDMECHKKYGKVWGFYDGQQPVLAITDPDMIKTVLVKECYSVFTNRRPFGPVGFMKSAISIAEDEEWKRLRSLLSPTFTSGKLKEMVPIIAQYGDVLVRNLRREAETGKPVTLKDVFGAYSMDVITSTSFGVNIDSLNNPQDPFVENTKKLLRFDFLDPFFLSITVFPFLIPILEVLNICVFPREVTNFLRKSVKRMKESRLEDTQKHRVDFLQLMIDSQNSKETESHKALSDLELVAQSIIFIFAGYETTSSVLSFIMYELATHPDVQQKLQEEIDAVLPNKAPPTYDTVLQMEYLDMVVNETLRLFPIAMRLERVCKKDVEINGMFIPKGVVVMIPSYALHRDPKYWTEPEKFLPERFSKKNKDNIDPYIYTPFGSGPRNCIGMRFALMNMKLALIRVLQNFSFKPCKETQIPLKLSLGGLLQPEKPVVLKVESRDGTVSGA

IC50 (CYP3A4 [1])	IC50 (CYP3A4 [2])	Ki (CYP3A4 [3]; [4])	Ki (CYP3A4 [3]; [5])	SMILES
0.032 µM	0.048 µM	0.0778 µM	0.0249 µM	CCCCNC(=O)c1ccccc1S(=O)(=O)Nc1cncc(OCC)c1 [Example 306, N-butyl-2-{[(5-ethoxypyridin-3-yl)amino]sulfonyl}benzamide]
0.044 µM	0.036 µM	0.143 µM	0.0168 µM	COc1cncc(NS(=O)(=O)c2ccc(F)cc2C(=O)NCc2ccc(F)cc2)c1 [Example 307, 5-fluoro-N-(4-fluorobenzyl)-2-{[(5-methoxypyridin-3-yl)amino]sulfonyl}benzamide]
0.062 µM	0.095 µM	0.513 µM	0.042 µM	COc1cncc(NS(=O)(=O)c2ccc(Cl)cc2C(=O)N2CCCC(C)C2)c1 (stereo not drawn) [Example 308, 4-chloro-N-(5-methoxypyridin-3-yl)-2-[(3-methylpiperidin-1-yl)carbonyl]benzenesulfonamide]
0.149 µM	0.427 µM	0.808 µM	0.145 µM	COc1cncc(NS(=O)(=O)c2ccc(Cl)cc2C(=O)N(C)C(C)C)c1 [Example 309, 5-chloro-N-isopropyl-2-{[(5-methoxypyridin-3-yl)amino]sulfonyl}-N-methylbenzamide]
0.053 µM	0.064 µM	0.14 µM	0.0283 µM	COc1cncc(NS(=O)(=O)c2ccc(Cl)cc2C(=O)NCc2ccc(F)cc2)c1 [Example 310, 5-chloro-N-(4-fluorobenzyl)-2-{[(5-methoxypyridin-3-yl)amino]sulfonyl}benzamide]
0.034 µM	0.073 µM	0.209 µM	0.0762 µM	COc1cncc(NS(=O)(=O)c2ccccc2C(=O)NC(C)C2CC2)c1 (stereo not drawn) [Example 311, N-(1-cyclopropylethyl)-2-{[(5-methoxypyridin-3-yl)amino]sulfonyl}benzamide]
0.013 µM	0.012 µM	0.0086 µM	0.0035 µM	COc1cncc(NS(=O)(=O)c2ccccc2C(=O)NCc2ccc(F)c(C(F)(F)F)c2)c1 [Example 312, N-[4-fluoro-3-(trifluoromethyl)benzyl]-2-{[(5-methoxypyridin-3-yl)amino]sulfonyl}benzamide]
0.019 µM	0.055 µM	0.197 µM	0.0487 µM	COc1cncc(NS(=O)(=O)c2ccccc2C(=O)NC(C)C(C)C)c1 (stereo not drawn) [Example 313, N-(1,2-dimethylpropyl)-2-{[(5-methoxypyridin-3-yl)amino]sulfonyl}benzamide]
0.017 µM	0.017 µM	0.0187 µM	0.0045 µM	COc1cncc(NS(=O)(=O)c2ccccc2C(=O)NCc2ccc(Cl)c(Cl)c2)c1 [Example 314, N-(3,4-dichlorobenzyl)-2-{[(5-methoxypyridin-3-yl)amino]sulfonyl}benzamide]
0.022 µM	0.043 µM	0.25 µM	0.0422 µM	Cc1cncc(NS(=O)(=O)c2ccccc2C(=O)NC(C)C2CC2)c1 (stereo not drawn) [Example 315, N-(1-cyclopropylethyl)-2-{[(5-methylpyridin-3-yl)amino]sulfonyl}benzamide]
0.017 µM	0.027 µM	0.0084 µM	0.0012 µM	Cc1cncc(NS(=O)(=O)c2ccccc2C(=O)NCc2ccc(F)c(C(F)(F)F)c2)c1 [Example 316, N-[4-fluoro-3-(trifluoromethyl)benzyl]-2-{[(5-methylpyridin-3-yl)amino]sulfonyl}benzamide]
0.015 µM	0.019 µM	0.144 µM	0.0516 µM	Cc1cncc(NS(=O)(=O)c2ccccc2C(=O)NC(C)C(C)C)c1 (stereo not drawn) [Example 317, N-(1,2-dimethylpropyl)2{[(5-methylpyridin-3-yl)amino]sulfonyl}benzamide]
0.145 µM	0.165 µM	0.0099 µM	0.0019 µM	Cc1cncc(NS(=O)(=O)c2ccccc2C(=O)NCc2ccc(Cl)c(Cl)c2)c1 [Example 318, N-(3,4-dichlorobenzyl)-2-{[(5-methylpyridin-3-yl)amino]sulfonyl}benzamide]
0.01 µM	0.011 µM	0.0043 µM	0.0072 µM	Cc1cncc(NS(=O)(=O)c2ccccc2C(=O)NCCc2ccccc2C)c1 [Example 319, N-[2-(2-methylphenyl)ethyl]-2-{[(5-methylpyridin-3-yl)amino]sulfonyl}benzamide]
0.006 µM	0.008 µM	0.0101 µM	0.0284 µM	Cc1cncc(NS(=O)(=O)c2ccccc2C(=O)NCc2ccc(F)c(F)c2)c1 [Example 320, N-(3,4-difluorobenzyl)-2-{[(5-methylpyridin-3-yl)amino]sulfonyl}benzamide]
0.094 µM	0.129 µM	0.195 µM	0.46 µM	Cc1cncc(NS(=O)(=O)c2ccccc2C(=O)N2CCCC2)c1 [Example 321, N-(5-methylpyridin-3-yl)-2-(pyrrolidin-1-ylcarbonyl)benzenesulfonamide]
0.011 µM	0.015 µM	0.0544 µM	0.0198 µM	COc1cncc(N(C)S(=O)(=O)c2ccccc2C(=O)NCc2cccc(F)c2)c1 [Example 322, N-(3-fluorobenzyl)-2-{[(5-methoxypyridin-3-yl)(methyl)amino]sulfonyl} benzamide]
0.028 µM	0.059 µM	0.21 µM	0.221 µM	CC(C)CCNC(=O)c1ccccc1S(=O)(=O)N(C)c1cccnc1 [Example 323, N-(3-methylbutyl)-2-{[methyl(pyridin-3-yl)amino]sulfonyl}benzamide]
0.011 µM	0.02 µM	0.0851 µM	0.0217 µM	CN(CC1CCCC1)C(=O)c1ccccc1S(=O)(=O)Nc1cccnc1 [Example 324, N-(cyclopentylmethyl)-N-methyl-2-[(pyridin-3-ylamino)sulfonyl]benzamide]
0.119 µM	0.084 µM	0.035 µM	0.0086 µM	Cc1ccccc1CCNC(=O)c1ccccc1S(=O)(=O)N(C)c1cccnc1 [Example 325, N-[2-(2-methylphenyl)ethyl]-2-{[methyl(pyridin-3-yl)amino]sulfonyl}benzamide]
0.132 µM	0.164 µM	0.884 µM	0.273 µM	CN(c1cccnc1)S(=O)(=O)c1ccccc1C(=O)N1CCOCC1 [Example 326, N-methyl-2-(morpholin-4-ylcarbonyl)-N-pyridin-3-ylbenzenesulfonamide]
> 0.75 µM	> 0.75 µM	> 1 µM	0.484 µM	CN(c1cccnc1)S(=O)(=O)c1ccccc1C(=O)N1CCCC1 [Example 328, N-methyl-N-pyridin-3-yl-2-(pyrrolidin-1-ylcarbonyl)benzenesulfonamide]
0.032 µM	0.058 µM	0.034 µM	0.0177 µM	CCCN(CC1CC1)C(=O)c1ccccc1S(=O)(=O)N(C)c1cncc(OC)c1 [Example 329, N-(cyclopropylmethyl)-2-{[(5-methoxypyridin-3-yl)(methyl)amino]sulfonyl}-N-propylbenzamide]
0.06 µM	0.055 µM	0.204 µM	0.0227 µM	Cc1cncc(NS(=O)(=O)c2ccccc2C(=O)NCC(C)(C)C)c1 [Example 330, N-(2,2-dimethylpropyl)-2-{[(5-methylpyridin-3-yl)amino]sulfonyl}benzamide]
0.012 µM	0.014 µM	0.0752 µM	0.0109 µM	CCCN(CC1CC1)C(=O)c1ccccc1S(=O)(=O)Nc1cncc(C)c1 [Example 331, N-(cyclopropylmethyl)-2-{[(5-methylpyridin-3-yl)amino]sulfonyl}-N-propylbenzamide]
0.013 µM	0.013 µM	0.334 µM	0.0612 µM	CN(c1cccnc1)S(=O)(=O)c1ccccc1C(=O)NCC1CCCC1 [Example 332, N-(cyclopentylmethyl)-2-{[methyl(pyridin-3-yl)amino]sulfonyl}benzamide]
0.024 µM	0.013 µM	0.0692 µM	0.0229 µM	Cc1cncc(NS(=O)(=O)c2ccccc2C(=O)N2CC(C)CC(C)C2)c1 (stereo not drawn) [Example 333, 2-[(3,5-dimethylpiperidin-1-yl)carbonyl]-N-(5-methylpyridin-3-yl)benzenesulfonamide]
0.012 µM	0.017 µM	0.0826 µM	0.0091 µM	Cc1cncc(NS(=O)(=O)c2ccccc2C(=O)NCC2CCCC2)c1 [Example 334, N-(cyclopentylmethyl)-2-{[(5-methylpyridin-3-yl)amino]sulfonyl}benzamide]
0.02 µM	0.028 µM	0.0977 µM	0.0168 µM	Cc1cncc(NS(=O)(=O)c2ccccc2C(=O)N(C)Cc2ccccc2)c1 [Example 335, N-benzyl-N-methyl-2-{[(5-methylpyridin-3-yl)amino]sulfonyl}benzamide]
0.037 µM	0.019 µM	0.319 µM	0.0682 µM	COc1ccc(CNC(=O)c2ccccc2S(=O)(=O)N(C)c2cccnc2)cc1 [Example 336, N-(4-methoxybenzyl)-2-{[methyl(pyridin-3-yl)amino]sulfonyl}benzamide]
